The source of these data is patent US10829649B2, “Methods and coatings for protecting surfaces from bio-fouling species” (priority 2018, dated 2020).

The conditions of data set [1]: cited from earlier work.
The conditions of data set [2]: soil and water runoff; cited from earlier work.
Data set [3] relates to barnacle or mussel larvae. The experiment in a line: biocide-impregnated polymer without outer biostatic layer exposed to larvae. In kind it is in vivo. The conditions noted are these: weeks or months later; no outer biostatic layer. The text has this:
With respect to undesirable effects on the aquatic environment and the benign and beneficial organisms that reside there, the outer biostatic layer is less potentially hazardous both for the chemical and physical reasons mentioned above and shields the water from contact with the more potentially hazardous inner biocidal layer. Also, when an occasional barnacle or mussel larva penetrates the outer layer and touches the inner layer as a juvenile, it is killed quickly and outright on contact. It has been experimentally observed that, when a polymer impregnated with a biocidal biocide such as ivermectin is exposed to barnacle or mussel larvae, and there is no outer biostatic attachment inhibiting polymer layer present, that larvae do attach regardless and grow on the surface of the polymer layer. The organisms with their tiny shells can be seen with a magnifying glass. […] With the present embodiments, the area of the puncture site of the inner layer is microscopic and thus nothing leaks out of the inner layer into the surrounding water.

In brackets after ≈: the same amount, converted by molar mass. Like-named read-outs stand apart in the source and are kept apart here.

`Cc1cccc(C(C)c2cnc[nH]2)c1C` (stereo not shown) [Medetomidine]: the water solubility in data set [1] was 186 µg/mL (≈ 929 µM).

For `[Ag+].[O-][n+]1ccccc1[S-]` [silver pyrithione], the water solubility result in data set [1] (silver pyrithione) is “about 37 per L”.

In the case of `CC[C@H]1CCC[C@H](O[C@H]2CC[C@H](N(C)C)[C@@H](C)O2)[C@@H](C)C(=O)C2=C[C@@H]3[C@@H](C=C(C)[C@@H]4C[C@@H](O[C@@H]5O[C@@H](C)[C@H](OC)[C@@H](OC)[C@H]5OC)C[C@@H]34)[C@@H]2CC(=O)O1` [spinosad D], in data set [2], the “adsorption coefficient KOC” value is recorded as 34,600.

As to `CC(C)[C@]12O[C@H]1[C@@H]1O[C@]13[C@]1(O[C@H]1C[C@H]1C4=C(CC[C@@]13C)C(=O)OC4)[C@@H]2O` [triptolide], the water solubility in data set [1] was 0.017 µg/mL (≈ 0.0472 µM).

Regarding `[O]=[Zn]` [zinc oxide], the water solubility result in data set [1] (pure water) is “about 16 mg/L”.

In the case of ivermectin, the “adult barnacles or mussels on the polymer layer” value in data set [3] was “no adult barnacle or mussel adults are seen”.

For pyrethrins, the water solubility in data set [1] was under 0.1 µg/mL. Besides, the “adsorption coefficient KOC” value in data set [2] is recorded as > 100,000.

As for spinosad, in data set [2], the “adsorption coefficient KOC” value was 34,600.

As for zinc pyrithione, the water solubility entry in data set [1] (metal pyrithione salts) is “about 12 mg per L”.
